For series [1], the target named is T1, hyaluronidase of bovine origin (Bos taurus, UniProt Q2YDK3).
T1 sequence (Q2YDK3 36-553): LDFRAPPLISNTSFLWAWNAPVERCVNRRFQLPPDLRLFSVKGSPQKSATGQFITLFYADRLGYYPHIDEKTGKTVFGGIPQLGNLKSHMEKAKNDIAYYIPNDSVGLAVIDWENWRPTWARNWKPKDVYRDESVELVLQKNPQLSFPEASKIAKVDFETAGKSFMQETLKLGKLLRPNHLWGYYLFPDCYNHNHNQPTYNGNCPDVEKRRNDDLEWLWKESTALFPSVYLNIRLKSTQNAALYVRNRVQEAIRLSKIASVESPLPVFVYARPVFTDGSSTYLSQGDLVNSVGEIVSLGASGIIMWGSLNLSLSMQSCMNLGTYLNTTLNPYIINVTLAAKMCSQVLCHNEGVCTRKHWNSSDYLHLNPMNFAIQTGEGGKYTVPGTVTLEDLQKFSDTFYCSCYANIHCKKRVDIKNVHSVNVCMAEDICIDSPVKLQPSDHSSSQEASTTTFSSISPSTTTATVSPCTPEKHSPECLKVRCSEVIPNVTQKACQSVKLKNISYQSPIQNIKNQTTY
As to the kind of experiment: Inhibitory effect of glycyrrhizin on hyaluronidase activity (turbidimetry of nonhydrolysed hyaluronic acid). It counts as biochemical. Particulars: without preincubation with the enzyme; read-out: concentration of GLZ which gives 50% inhibition (IC50) of the hyaluronidase activity. The method, then: Determination of the IC50 of GLZ, with or without Preincubation at 37° C.:
GLZ, at various concentrations, is or is not preincubated for 20 minutes at 37° C. in the presence of the enzyme. The enzyme reaction is triggered by adding the hyaluronic acid solution (time T0). After incubation for 20 minutes, the nonhydrolysed hyaluronic acid is precipitated by adding acidic bovine albumin solution.
In order to verify that the preincubation step has no effect on the stability of the hyaluronidase, an aliquot of a solution of the enzyme is placed at 37° C. for 20 minutes. Another aliquot is conserved in an ice bath for 19 minutes, and is then incubated at 37° C. for 1 minute. A solution of hyaluronic acid is then added to each aliquot (TO). After incubation for 15, 30 or 45 minutes, the nonhydrolysed hyaluronic acid is precipitated by addition of acidic bovine albumin solution.
After the precipitation step, the turbidimetry of the solutions is determined on a spectrophotometer at a wavelength of 600 nm. The optical density (OD) of these solutions is subtracted from the OD of a control solution of hyaluronic acid (of the same concentration) not hydrolysed by the enzyme. This difference in OD, which is inversely proportional to the concentration of hyaluronic acid, is used to measure the activity of the hyaluronidase.

The conditions of series [2]: humans; cited from earlier work.

pIC50: −log10 of the molar value.

On to `CC1(C)[C@@H](O[C@H]2O[C@H](C(=O)O)[C@@H](O)[C@H](O)[C@H]2O[C@@H]2O[C@H](C(=O)O)[C@@H](O)[C@H](O)[C@H]2O)CC[C@]2(C)[C@H]3C(=O)C=C4[C@@H]5C[C@@](C)(C(=O)O)CC[C@]5(C)CC[C@@]4(C)[C@]3(C)CC[C@@H]12` [GLZ, Glycyrrhizin], for which the pIC50 in series [1] was 3.40.

On to hyaluronic acid, for which, in series [2], the “excretion in the urine” value is recorded as “less than 1 % of total clearance”.

Source of the values: US20110263521A1, “PHARMACEUTICAL OR COSMETIC PREPARATIONS FOR TOPICAL AND/OR PARENTERAL APPLICATION, PREPARATION METHODS THEREOF AND USE OF SAME” (priority 2007, published 2011).
